From US5317021A, “3-mercapto-glutamic acid derivatives” (ONO Pharmaceutical Co., Ltd., priority 1988, dated 1994)
Structures can show the parent of a compound that is named as a salt.

Assays:
[1] = test system: bradykinin-induced biting-like response; experiment: Inhibitory effect on bradykinin-induced biting-like response; type: in vivo, male Spraque-Dawley rats; conditions: for Number of rats which did not show the biting-like response, 30 minutes after p.o. / Number of rats which did not show the biting-like response, 60 minutes after p.o. / Number of rats which did not show the biting-like response, 90 minutes after p.o. / Number of rats which did not show the biting-like response, 120 minutes after p.o.: 100 mg/kg p.o., number of rats 8; for Number of rats which did not show the biting-like response, 10 minutes after i.p. / Number of rats which did not show the biting-like response, 40 minutes after i.p. / Number of rats which did not show the biting-like response, 70 minutes after i.p. / Number of rats which did not show the biting-like response, 100 minutes after i.p.: 10 mg/kg i.p., number of rats 5 (Example 1), 8 (Example 12(5))
Procedure: The experiment was carried out according to the method as described in Journal of Pharmacological Methods, Z, 271 (1982). That is, male Spraque-Dawley rats (weighing 200~300 g) were used. Implantation of the bradykinin (0.63~1.25 μg in 0.5~1.0 μl of distilled water) - filled cannula onto the tooth pulp and the fixation of it on the lower incisor surfaces were carried out under ethyl ether anesthesia. A micro-application of bradykinin onto the tooth pulp produced biting-like response and some other aversive behaviors such as jumping, struggling, rubbing, scratching, escape, head-jerk and body-jerk within 1 minute.
The test compounds suspended in 0.5% carboxymethyl cellulose solution were administered either intraperitoneally or orally. After regular intervals bradykinin was administered.

[2] = acute toxicity (LD50), intraperitoneal injection in mice; conditions: mouse, in vivo, ip
enkephalinase = target: T1, enkephalinase (Mus musculus, UniProt Q61391); experiment: Inhibitory effect on enkephalinase; type: biochemical, ddY male mice; conditions: substrate Suc-Ala-Ala-Phe-AMC 10^-4 M, 37° C., 60 minutes, mouse striata enzyme
T1 construct: striata obtained from ddY male mice; from tissue; host or cells: striata of ddY male mice (washed 20000 g membrane pellet, not purified)
T1 sequence (Q61391 1-750): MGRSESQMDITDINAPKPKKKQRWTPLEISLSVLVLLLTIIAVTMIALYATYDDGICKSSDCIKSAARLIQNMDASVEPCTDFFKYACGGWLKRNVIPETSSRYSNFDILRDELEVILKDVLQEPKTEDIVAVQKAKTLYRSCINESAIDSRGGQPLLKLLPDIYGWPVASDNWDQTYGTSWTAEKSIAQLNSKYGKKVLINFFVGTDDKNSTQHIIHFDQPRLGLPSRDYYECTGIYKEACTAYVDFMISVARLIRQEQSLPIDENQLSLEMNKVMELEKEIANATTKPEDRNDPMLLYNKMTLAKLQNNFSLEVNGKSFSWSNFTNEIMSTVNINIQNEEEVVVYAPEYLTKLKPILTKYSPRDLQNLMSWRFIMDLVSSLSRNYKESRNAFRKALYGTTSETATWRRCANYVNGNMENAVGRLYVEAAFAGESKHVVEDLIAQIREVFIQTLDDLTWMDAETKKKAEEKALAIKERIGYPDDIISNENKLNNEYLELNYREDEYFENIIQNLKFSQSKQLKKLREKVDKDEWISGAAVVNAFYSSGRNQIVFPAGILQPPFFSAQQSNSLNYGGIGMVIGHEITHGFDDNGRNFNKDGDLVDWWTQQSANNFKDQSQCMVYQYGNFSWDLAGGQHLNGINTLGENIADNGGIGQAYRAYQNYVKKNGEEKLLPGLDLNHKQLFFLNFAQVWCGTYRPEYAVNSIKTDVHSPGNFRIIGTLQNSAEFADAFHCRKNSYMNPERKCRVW
Procedure: That is, to striata obtained from ddY male mice (weighing 28~30 g), Tris hydrochloric acid buffer solution (referred to "Tris buffer" hereafter) was added. The mixture was homogenised and centrifuged (1000 g×5 minites). The supernatant obtained was further centrifuged (20000 g×1 minutes). The resulting pellet was washed with cold Tris buffer and resuspended in a fresh Tris buffer to use as enzyme source of enkephalinase.
Incubation at 37° C. for 60 minutes was started by adding thereto […] of enzyme solution (×30 dilution of the above enzyme source) and 50 μl of a substrate solution containing succinyl-alanyl-alanyl-phenylalanyl (7-amido-4-methyl)coumarin (i.e. Suc-Ala-Ala-Phe-AMC, final concentration: 10^-4 M) dissolved in 50 mM HEPES/NaOH buffer (pH 7.4). The reaction was stopped by the addition of thiorphan (10^-6 M) and by heating the samples at 95° C. for 15 minutes. […] Blanks values were obtained by the same procedure as above described by using thiorphan (10^-6 M) instead of the test compound.

O=C(O)CC[C@H](NC(=O)[C@@H](CSC1OC(=O)c2ccccc21)Cc1ccccc1)C(=O)Nc1ccccc1 (stereo partly drawn) [Example 16, N-[3-(phthalid-3yl)thio-2S-benzylpropionyl]-α-anilino-L-glutamic acid]
Number of rats which did not show the biting-like response, 30 minutes after p.o. [1]: 3 | Number of rats which did not show the biting-like response, 60 minutes after p.o. [1]: 6 | Number of rats which did not show the biting-like response, 90 minutes after p.o. [1]: 2 | Number of rats which did not show the biting-like response, 120 minutes after p.o. [1]: 0 | LD50 [2]: 500 to 1000 mg/kg

CN(C)c1ccc(NC(=O)C[C@H](NC(=O)C(CS)Cc2ccccc2)C(=O)O)cc1 (stereo partly drawn) [12(7), N-(3-mercapto-2RS-benzylpropionyl)-β-[4-(N,N-dimethylamino)anilino]-L-aspartic acid]
IC50 (enkephalinase): 24 nM

O=C(O)CC[C@H](NC(=O)[C@@H](CSC(=O)C(c1ccccc1)c1ccccc1)Cc1ccccc1)C(=O)Nc1ccccc1 [13(5), N-(3-diphenylacetylthio-2S-benzylpropionyl)-α-anilino-L-glutamic acid]
Number of rats which did not show the biting-like response, 30 minutes after p.o. [1]: 1 | Number of rats which did not show the biting-like response, 60 minutes after p.o. [1]: 7 | Number of rats which did not show the biting-like response, 90 minutes after p.o. [1]: 1 | Number of rats which did not show the biting-like response, 120 minutes after p.o. [1]: 1

O=C(O)CC[C@H](NC(=O)C(CS)Cc1ccccc1)C(=O)Nc1cccc2ccccc12 (stereo partly drawn) [2(7), N-(3-mercapto-2RS-benzylpropionyl)-L-glutamic acid α-(1-naphthyl)amide]
IC50 (enkephalinase): 350 nM

O=C(O)CC[C@H](NC(=O)C(CS)CC1CCCCC1)C(=O)Nc1ccccc1 (stereo partly drawn) [1(1), N-(3-mercapto-2RS-cyclohexylmethyl-propionyl)-α-anilino-L-glutamic acid]
IC50 (enkephalinase): 400 nM

O=C(C[C@H](NC(=O)C(CS)Cc1ccccc1)C(=O)O)Nc1ccc(C(F)(F)F)cc1 (stereo partly drawn) [12(8), N-(3-mercapto-2RS-benzylpropionyl)-β-(4-trifluoromethylanilino)-L-aspartic acid]
IC50 (enkephalinase): 21 nM

O=C(C[C@H](NC(=O)C(CS)Cc1ccccc1)C(=O)O)Nc1ccccc1 (stereo partly drawn) [Example 12, N-(3-mercapto-2RS-benzylpropionyl)-β-anilino-L-aspartic acid and the corresponding α-sodium salt]
IC50 (enkephalinase): 13 nM

O=C(O)CC[C@H](NC(=O)C(CS)Cc1ccccc1)C(=O)Nc1cnccn1 (stereo partly drawn) [3(9), N-(3-mercapto-2RS-benzylpropionyl)-L-glutamic acid α-(pyrazin-2-yl) amide]
IC50 (enkephalinase): 190 nM

COc1ccc(NC(=O)[C@H](CC(=O)O)NC(=O)C(CS)Cc2ccccc2)cc1 (single isomer, unassigned) [8(4), N-(3-mercapto-2RS-benzylpropionyl)-α-(4-methoxyanilino)-L-aspartic acid]
IC50 (enkephalinase): 50 nM

O=C(O)CC[C@H](NC(=O)C(CS)Cc1ccccc1)C(=O)Nc1nc2ccccc2s1 (stereo partly drawn) [2(10), N-(3-mercapto-2RS-benzylpropionyl)-L-glutamic acid α-(2-benzthiazolyl) amide]
IC50 (enkephalinase): 44 nM

O=C(O)CC[C@H](NC(=O)C(CS)Cc1ccccc1)C(=O)Nc1ccc(Cl)cn1 (stereo partly drawn) [3(4), N-(3-mercapto-2RS-benzylpropionyl)-L-glutamic acid α-(5-chloropyridin-2-yl)amide]
IC50 (enkephalinase): 35 nM

COC(=O)C[C@H](NC(=O)C(CS)Cc1ccccc1)C(=O)Nc1ccc2c(c1)C(c1ccccc1)=NCCN2C (stereo partly drawn) [Example 4, N-(3-mercapto-2RS-benzylpropionyl)-L-aspartic acid α-(2,3-dihydro-1-methyl-5-phenyl-1H-1,4-benzodiazepin-7yl)amide β-methyl ester]
IC50 (enkephalinase): 150 nM

O=C(O)CC[C@H](NC(=O)C(CS)Cc1ccccc1)C(=O)Nc1ccccc1 (stereo partly drawn) [Example 1, N-(3-mercapto-2RS-benzylpropionyl)-α-anilino-L-glutamic acid]
IC50 (enkephalinase): 21 nM | Number of rats which did not show the biting-like response, 10 minutes after i.p. [1]: 4 | Number of rats which did not show the biting-like response, 40 minutes after i.p. [1]: 4 | Number of rats which did not show the biting-like response, 70 minutes after i.p. [1]: 3 | Number of rats which did not show the biting-like response, 100 minutes after i.p. [1]: 1

O=C(C[C@H](NC(=O)C(CS)Cc1ccccc1)C(=O)O)Nc1ccc(I)cc1 (stereo partly drawn) [12(5), N-(3-mercapto-2RS-benzylpropionyl)-β-(4-iodoanilino)-L-aspartic acid]
IC50 (enkephalinase): 2.8 nM | Number of rats which did not show the biting-like response, 10 minutes after i.p. [1]: 4 | Number of rats which did not show the biting-like response, 40 minutes after i.p. [1]: 2 | Number of rats which did not show the biting-like response, 70 minutes after i.p. [1]: 1 | Number of rats which did not show the biting-like response, 100 minutes after i.p. [1]: 0

Cc1ccc(CC(CS)C(=O)N[C@@H](CCC(=O)O)C(=O)Nc2ccccc2)cc1 (stereo partly drawn) [1(3), N-[3-mercapto-2RS-(4-methylbenzyl)-propionyl]-α-anilino-L-glutamic acid]
IC50 (enkephalinase): 71 nM

O=C(CC[C@H](NC(=O)C(CS)Cc1ccccc1)C(=O)O)Nc1ccccc1 (stereo partly drawn) [Example 11, N-(3-mercapto-2RS-benzylpropionyl)-γ-anilino-L-glutamic acid α-sodium salt]
IC50 (enkephalinase): 68 nM

COc1ccc(CC(CS)C(=O)N[C@@H](CCC(=O)O)C(=O)Nc2ccccc2)cc1 (stereo partly drawn) [1(2), N-[3-mercapto-2RS-(4-methoxybenzyl)-propionyl]-α-anilino-L-glutamic acid]
IC50 (enkephalinase): 51 nM

NS(=O)(=O)c1ccc(NC(=O)[C@H](CCC(=O)O)NC(=O)C(CS)Cc2ccccc2)cc1 (stereo partly drawn) [3(8), N-(3-mercapto-2RS-benzylpropionyl)-α-(4-sulfamoylanilino)-L-glutamic acid]
IC50 (enkephalinase): 23 nM

O=C(O)CC[C@H](NC(=O)C(CS)Cc1ccccc1)C(=O)Nc1ccc(C(=O)O)cc1 (stereo partly drawn) [3(2), N-(3-mercapto-2RS-benzylpropionyl)-α-(4-carboxyanilino)-L-glutamic acid]
IC50 (enkephalinase): 3.6 nM
